{"source": "patent US10702512B2", "about": "“Treatment of debilitating fatigue” (A. CARLSSON RESEARCH AB, priority 2015, dated 2020)", "assay_type_in_all_cases": "in vivo, human", "key": {"ME/CFS patients [1]": {"tested_on": "ME/CFS patients", "test": "FibroFatigue scale (FF) total score, phase II clinical study", "from_the_text": "As used herein, the term “FF-scale” or “FF” refers to the FibroFatigue scale also known as the fibromyalgia and chronic fatigue syndrome rating scale described in by Zachrisson and coworkers (Zachrisson O, et al, (2002) J Psychosom Res Jun; 52(6):501-9). The FibroFatigue scale is an observer's rating scale with 12 items measuring pain, muscular tension, fatigue, concentration difficulties, failing memory, irritability, sadness, sleep disturbances, and autonomic disturbances and irritable bowel, headache and subjective experience of infection. […] Circular coated tablets for oral use of 15 mg and matching placebos was used. The tablets were administered by research nurses at the study site. The tablets were circular coated tablets for oral use containing 15 mg OSU6162. Matching placebos were used. The start dose was 15 mg OSU6162 twice daily (before breakfast and lunch) during 1 week with dose increase up to 30 mg twice daily during the following week. Additionally, the clinical effect was evaluated using the FF-scale, The Beck/BDI scale, VAS pain scale and with neuropsychological tests. To examine the effect of treatment and concomitant use of an antidepressant, antidepressant was included as a fixed factor in the analyses. […] Outcome targets FF, MFS and BDI were measured."}, "ME/CFS patients [2]": {"tested_on": "ME/CFS patients", "test": "mental fatigue self-assessment questionnaire (MFS) total score, phase II clinical study", "method": "As used herein, the term “MFS” refers to a the mental fatigue self-assessment questionnaire (Johansson B et al (2010) Brain Injury 2010; 24:2-12). […] Circular coated tablets for oral use of 15 mg and matching placebos was used. The tablets were administered by research nurses at the study site. The tablets were circular coated tablets for oral use containing 15 mg OSU6162. Matching placebos were used. The start dose was 15 mg OSU6162 twice daily (before breakfast and lunch) during 1 week with dose increase up to 30 mg twice daily during the following week. Efficacy was measured according to ratings using the self-assessment questionnaire for mental fatigue and related symptoms (MFS) after neurological disorders and injuries (Johansson et al, supra). Another primary endpoint was the result of the rating by the Clinical Global Impression of Change (Guy, supra), which rating was made by the doctor in charge of the patient. CGI-C scores range from 1 (very much improved) through to 7 (very much worse). To examine the effect of treatment and concomitant use of an antidepressant, antidepressant was included as a fixed factor in the analyses. […] Outcome targets FF, MFS and BDI were measured."}, "[3]": {"test": "OSU6162 concentration in blood plasma", "method": "Next, the concentration of OSU6162 in blood plasma was measured and analyzed for correlations with time and changes in FF, MFS and BDI score.\nPlasma concentrations of OSU6162 were measured in 30 patients who received placebo and in 31 patients who received OSU6162. The blood sample was drawn in the morning after the tablet was taken—the time of the tablet intake was noted and reported to the clinic by the patient. The blood sample was taken at minimum 65 and at maximum 180 minutes after tablet intake. The mean time was 123 minutes and the standard deviation 33 minutes.\nIn order to analyze the relationship between the treatment outcome and the concentration of OSU6162 in blood plasma, OSU6162 concentrations in patients measured after week 2 were plotted against change in FF, MFS and BDI score (FIGS. 6, 7 and 8)."}, "ME/CFS patients [4]": {"tested_on": "ME/CFS patients", "test": "Stroop tests (Victoria version)", "design": "Stroop 2, mean / Stroop 2, Difference / Stroop 2, median / Stroop 3, mean / Stroop 3, Difference / Stroop 3, median / Stroop 1, mean / Stroop 1, Difference / Stroop 1, median: unit not given here", "method": "Next, patients were evaluated using a neuropsychological test. 61 patients were included in a neuropsychological examination. All subjects were tested once in connection with the randomization with the BNIS neuropsychological screening test. 20-30 minutes was required for this test. With the purpose of measuring the cognitive effects of the OSU6162 treatment six more tests were distributed at a first occasion before the initiation of treatment and at a second occasion after the treatment was completed. These tests required 20 minutes each. All tests were performed by a neuropsychologist. The Stroop test (Victoria version) is a time-based test sensitive to frontal lobe dysfunction. It measures executive functioning and is validated and used internationally. Depression and anxiety could influence the results. Speeds of processing and conceptual abilities contribute to the performance. It also reflects the ability of concentration. The test consists of three cards each containing six rows of four items. Stroop I is on the first card. In this subtest the subject must name as quickly as possible the color of 24 dots printed in blue, green, red and yellow. Each color is used six times and the four colors are arranged in pseudo-random order within the array, each color appears once in a row. Stroop 2 is on the second card. In this subtest the dots are replaced by common words printed in lower-case letters. The subject is required to name the colors in which the stimuli are presented and to disregard their verbal content. Stroop 3 is on the third card. In this subtest the colored stimuli are the color names “blue, green, red and yellow” printed in lower case letters so that the print color never corresponds to the color name."}, "[5]": {"conditions": "patients not on antidepressant therapy, post hoc comparison"}}, "data": [{"smiles": "CCCN1CCC[C@@H](c2cccc(S(C)(=O)=O)c2)C1.Cl", "note": "[OSU6162, (3S)-3-[3-(methylsulfonyl)-phenyl]-1-propylpiperidine hydrochloride]", "values": [{"measurement": "FF main effect of treatment", "setting": "ME/CFS patients [1]; 2-way ANOVA, OSU6162 vs placebo", "value": "None"}, {"measurement": "FF interaction between treatment with OSU6162 and antidepressant over time", "setting": "ME/CFS patients [1]; 3-way ANOVA week*treatm*antidepr, F3,180=6.785, p=0.0002", "value": "statistically significant 3-way interactions"}, {"measurement": "FF difference between OSU6162 treated and placebo treated patients", "setting": "ME/CFS patients [1]; [5]", "value": "No difference"}, {"measurement": "FF change from week 0, difference OSU6162 vs placebo (95% confidence interval)", "setting": "ME/CFS patients [1]; patients on stable antidepressant therapy, after one week of treatment, F1,56=6.320, p=0.015, Bonferroni", "value": "−7.23 (−13.1 to −1.48)"}, {"measurement": "MFS overall group difference between OSU6162 and placebo", "setting": "ME/CFS patients [2]; 2-way ANOVA, F1,60=3.997, p=0.050", "value": "borderline significant trend"}, {"measurement": "MFS interaction between treatment with OSU6162 and antidepressant over time", "setting": "ME/CFS patients [2]; 3-way ANOVA week*treatm*antidepr, F3,180=2.755, p=0.044", "value": "statistically significant 3-way interactions"}, {"measurement": "MFS overall difference between OSU6162 and placebo", "setting": "ME/CFS patients [2]; 3-way analysis with antidepressant as fixed factor, F1,60=3.578, p=0.063", "value": "tendency to an overall difference"}, {"measurement": "MFS difference between OSU6162 treated and placebo treated patients", "setting": "ME/CFS patients [2]; [5]", "value": "No difference"}, {"measurement": "MFS change from week 0, difference OSU6162 vs placebo (95% CI)", "setting": "ME/CFS patients [2]; patients on stable antidepressant therapy, after one week of treatment, F1,56=5.915, p=0.018, Bonferroni", "value": "−4.82 (−8.79 to −0.85)"}, {"measurement": "correlation between plasma concentration and time between tablet intake and blood sampling", "setting": "[3]; Spearman rank correlation, sampling 65-180 minutes after tablet intake", "value": "No significant correlation"}, {"measurement": "therapeutic optimum plasma concentration", "setting": "[3]; plasma after week 2 plotted against change in FF, MFS and BDI score, above 0.7 μM no further improvement", "value": "0.3 to 0.7", "unit": "µM"}, {"measurement": "Stroop 1, max", "setting": "ME/CFS patients [4]; after treatment", "value": 20, "unit": "s"}, {"measurement": "Stroop 1, mean", "setting": "ME/CFS patients [4]; after treatment", "value": 12.77}, {"measurement": "Stroop 1, median", "setting": "ME/CFS patients [4]; after treatment", "value": 12}, {"measurement": "Stroop 1, min", "setting": "ME/CFS patients [4]; after treatment", "value": 8}, {"measurement": "Stroop 2, max", "setting": "ME/CFS patients [4]; after treatment", "value": 29, "unit": "s"}, {"measurement": "Stroop 2, mean", "setting": "ME/CFS patients [4]; after treatment", "value": 16.9}, {"measurement": "Stroop 2, median", "setting": "ME/CFS patients [4]; after treatment", "value": 16}, {"measurement": "Stroop 2, min", "setting": "ME/CFS patients [4]; after treatment", "value": 9}, {"measurement": "Stroop 3, max", "setting": "ME/CFS patients [4]; after treatment", "value": 62, "unit": "s"}, {"measurement": "Stroop 3, mean", "setting": "ME/CFS patients [4]; after treatment", "value": 23.48}, {"measurement": "Stroop 3, median", "setting": "ME/CFS patients [4]; after treatment", "value": 23}, {"measurement": "Stroop 3, min", "setting": "ME/CFS patients [4]; after treatment", "value": 12}, {"measurement": "Stroop tests difference between OSU6162 and placebo groups", "setting": "ME/CFS patients [4]; before and after treatment", "value": "No significant differences"}, {"measurement": "Stroop 1, max", "setting": "ME/CFS patients [4]; before treatment", "value": 22, "unit": "s"}, {"measurement": "Stroop 1, mean", "setting": "ME/CFS patients [4]; before treatment", "value": 13.97}, {"measurement": "Stroop 1, median", "setting": "ME/CFS patients [4]; before treatment", "value": 14}, {"measurement": "Stroop 1, min", "setting": "ME/CFS patients [4]; before treatment", "value": 9}, {"measurement": "Stroop 2, max", "setting": "ME/CFS patients [4]; before treatment", "value": 39, "unit": "s"}, {"measurement": "Stroop 2, mean", "setting": "ME/CFS patients [4]; before treatment", "value": 19.5}, {"measurement": "Stroop 2, median", "setting": "ME/CFS patients [4]; before treatment", "value": 19}, {"measurement": "Stroop 2, min", "setting": "ME/CFS patients [4]; before treatment", "value": 10}, {"measurement": "Stroop 3, max", "setting": "ME/CFS patients [4]; before treatment", "value": 51, "unit": "s"}, {"measurement": "Stroop 3, mean", "setting": "ME/CFS patients [4]; before treatment", "value": 26.8}, {"measurement": "Stroop 3, median", "setting": "ME/CFS patients [4]; before treatment", "value": 24}, {"measurement": "Stroop 3, min", "setting": "ME/CFS patients [4]; before treatment", "value": 14}, {"measurement": "Stroop 1, Difference", "setting": "ME/CFS patients [4]; before vs after treatment", "value": 1.2}, {"measurement": "Stroop 2, Difference", "setting": "ME/CFS patients [4]; before vs after treatment", "value": 3.2}, {"measurement": "Stroop 3, Difference", "setting": "ME/CFS patients [4]; before vs after treatment", "value": 4.9}]}]}
